According to PubChem BioAssay AID248 (DTP/NCI, 2004):
Toxic doses and inconclusive results are not listed. No stated cut-off is given here; in the data, active means T/C of 150% or more; inactive means T/C below 125%.

Tested on: L1210 leukemia ip in BDF1 mice, survival T/C
Assay: NCI In Vivo Anticancer Drug Screen. Data for tumor model L1210 Leukemia (intraperitoneal) in B6D2F1 (BDF1) mice
Conditions: endpoint: mean survival time, higher = longer survival
How it was run: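 Tumor cells were implanted, animals were treated, and survival was followed. The result divides the treated measurement by the vehicle-control measurement.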

[1] = dose: 100.0 mg/kg/injection, schedule: Q01DX009 (ip), vehicle: Klucel (hydroxypropylcellulose) (HPC)
[2] = dose: 200.0 mg/kg/injection, schedule: Q01DX009 (ip), vehicle: Klucel (hydroxypropylcellulose) (HPC)
[3] = dose: 100.0 mg/kg/injection, schedule: Q01DX001 (ip), vehicle: saline with Tween-80
[4] = dose: 100.0 mg/kg/injection, schedule: Q01DX009 (ip), vehicle: saline with Tween-80
[5] = dose: 200.0 mg/kg/injection, schedule: Q01DX001 (ip), vehicle: saline with Tween-80
[6] = dose: 200.0 mg/kg/injection, schedule: Q01DX009 (ip), vehicle: saline with Tween-80
[7] = dose: 400.0 mg/kg/injection, schedule: Q01DX001 (ip), vehicle: saline with Tween-80
[8] = dose: 400.0 mg/kg/injection, schedule: Q01DX009 (ip), vehicle: saline with Tween-80
[9] = dose: 100.0 mg/kg/injection, schedule: Q01DX001 (ip), vehicle: saline
[10] = dose: 200.0 mg/kg/injection, schedule: Q01DX001 (ip), vehicle: saline
[11] = dose: 400.0 mg/kg/injection, schedule: Q01DX001 (ip), vehicle: saline
[12] = dose: 100.0 mg/kg/injection, schedule: Q04DX003 (ip), vehicle: saline with Tween-80
[13] = dose: 200.0 mg/kg/injection, schedule: Q04DX003 (ip), vehicle: saline with Tween-80

Measured: T/C

CC(C#N)CN1CC1 (configuration not stated)
inactive: dose: 20.0 mg/kg/injection, schedule: Q01DX001 (ip), vehicle: Klucel (hydroxypropylcellulose) (HPC) 101 % of control

CC1(Br)C(=O)NC(=O)NC1O (configuration not stated)
inactive: dose: 50.0 mg/kg/injection, schedule: Q01DX009 (ip), vehicle: Klucel (hydroxypropylcellulose) (HPC) 98 % of control | [1] 94 % of control | [2] 94 % of control

O[Si](O)(c1ccccc1)c1ccccc1
inactive: dose: 100.0 mg/kg/injection, schedule: Q04DX002 (ip), vehicle: saline with Tween-80 92 % of control | dose: 200.0 mg/kg/injection, schedule: Q04DX002 (ip), vehicle: saline with Tween-80 87 % of control | dose: 400.0 mg/kg/injection, schedule: Q04DX002 (ip), vehicle: saline with Tween-80 92 % of control

Brc1cc(Br)c(/C=C/c2c(Br)cc(Br)cc2Br)c(Br)c1
inactive: [1] 104 % of control | [2] 102 % of control | dose: 400.0 mg/kg/injection, schedule: Q01DX009 (ip), vehicle: Klucel (hydroxypropylcellulose) (HPC) 105 % of control

CCOC(=O)COc1cc(N)c(Cl)cc1Cl
inactive: dose: 100.0 mg/kg/injection, schedule: Q04DX002 (ip), vehicle: gum acacia 95 % of control | dose: 200.0 mg/kg/injection, schedule: Q04DX002 (ip), vehicle: gum acacia 95 % of control | dose: 400.0 mg/kg/injection, schedule: Q04DX002 (ip), vehicle: gum acacia 92 % of control

C=CCC1CC2(C)C(CCC3C2CCC2(C)C(C(C)CCCC(C)C)CCC32)CC1O (configuration not stated)
inactive: dose: 100.0 mg/kg/injection, schedule: Q01DX009 (ip), vehicle: gum acacia 87 % of control | dose: 200.0 mg/kg/injection, schedule: Q01DX009 (ip), vehicle: gum acacia 87 % of control | dose: 400.0 mg/kg/injection, schedule: Q01DX009 (ip), vehicle: gum acacia 104 % of control

Cc1cc(C)cc(CCc2cc(C)cc(C)c2)c1
inactive: [3] 95 % of control | [4] 88 % of control | [5] 94 % of control | [6] 95 % of control | [7] 89 % of control | [8] 95 % of control

CC(=O)c1cc(C)[nH]c1C
inactive: dose: 100.0 mg/kg/injection, schedule: Q01DX009 (ip), vehicle: saline sonified 100 % of control | dose: 100.0 mg/kg/injection, schedule: Q04DX003 (ip), vehicle: Klucel (hydroxypropylcellulose) (HPC) 89 % of control | dose: 200.0 mg/kg/injection, schedule: Q04DX003 (ip), vehicle: Klucel (hydroxypropylcellulose) (HPC) 106 % of control | dose: 400.0 mg/kg/injection, schedule: Q01DX009 (ip), vehicle: saline sonified 89 % of control

CSc1cc(C)c(OC(=O)Nc2cc(C)ccc2C)c(C)c1
inactive: dose: 25.0 mg/kg/injection, schedule: Q01DX009 (ip), vehicle: saline 98 % of control | dose: 50.0 mg/kg/injection, schedule: Q01DX009 (ip), vehicle: saline 93 % of control | dose: 100.0 mg/kg/injection, schedule: Q01DX009 (ip), vehicle: saline 91 % of control | dose: 100.0 mg/kg/injection, schedule: Q04DX003 (ip), vehicle: saline 107 % of control | dose: 200.0 mg/kg/injection, schedule: Q01DX009 (ip), vehicle: saline 91 % of control | dose: 200.0 mg/kg/injection, schedule: Q04DX003 (ip), vehicle: saline 98 % of control | dose: 400.0 mg/kg/injection, schedule: Q01DX009 (ip), vehicle: saline 106 % of control | dose: 400.0 mg/kg/injection, schedule: Q04DX003 (ip), vehicle: saline 95 % of control

CCC(C(=O)O)N(C)Cc1ccccc1 (configuration not stated)
inactive: [4] 92 % of control | [6] 89 % of control | [8] 89 % of control

O=C(O)C1C2C=CC(O2)C1C(=O)NCc1cccnc1 (configuration not stated)
inactive: [9] 106 % of control | [10] 94 % of control | [11] 95 % of control

Cc1cccc(C)c1C1=CCCCC1
inactive: dose: 50.0 mg/kg/injection, schedule: Q01DX001 (ip), vehicle: saline 108 % of control | [9] 104 % of control | [10] 104 % of control | [11] 110 % of control

CCCCCCCCCCCCCCCCC1CC2CCCCC2C1 (configuration not stated)
inactive: [3] 100 % of control | [5] 93 % of control | [7] 94 % of control

C=CCC(O)CCC (configuration not stated)
inactive: [4] 89 % of control | [12] 97 % of control | [6] 90 % of control | [13] 100 % of control | [8] 89 % of control | dose: 400.0 mg/kg/injection, schedule: Q04DX003 (ip), vehicle: saline with Tween-80 100 % of control

CC(C)N=C(NC(C)C)c1ccc(NC(=O)Nc2ccc(NC(=O)Nc3ccc(C(=NC(C)C)NC(C)C)cc3)cc2)cc1
inactive: dose: 1.88 mg/kg/injection, schedule: Q01DX Z (ip), vehicle: carboxymethylcellulose (CMC) 101 % of control | dose: 3.75 mg/kg/injection, schedule: Q01DX Z (ip), vehicle: carboxymethylcellulose (CMC) 102 % of control | dose: 7.5 mg/kg/injection, schedule: Q01DX Z (ip), vehicle: carboxymethylcellulose (CMC) 116 % of control | dose: 15.0 mg/kg/injection, schedule: Q01DX Z (ip), vehicle: carboxymethylcellulose (CMC) 102 % of control

CCCCc1cc([N+](=O)[O-])cc([N+](=O)[O-])c1OCN1C(=O)C2C3CCC(O3)C2C1=O (configuration not stated)
inactive: dose: 100.0 mg/kg/injection, schedule: Q04DX002 (ip), vehicle: Klucel (hydroxypropylcellulose) (HPC) 113 % of control | dose: 200.0 mg/kg/injection, schedule: Q04DX002 (ip), vehicle: Klucel (hydroxypropylcellulose) (HPC) 98 % of control | dose: 400.0 mg/kg/injection, schedule: Q04DX002 (ip), vehicle: Klucel (hydroxypropylcellulose) (HPC) 106 % of control

CCCC1C2=C(C(=O)OC2=O)C2C(CC)CC3=C(C(=O)OC3=O)C12 (configuration not stated)
inactive: dose: 12.5 mg/kg/injection, schedule: Q01DX001 (ip), vehicle: Klucel (hydroxypropylcellulose) (HPC) 90 % of control | dose: 25.0 mg/kg/injection, schedule: Q01DX001 (ip), vehicle: Klucel (hydroxypropylcellulose) (HPC) 94 % of control | dose: 50.0 mg/kg/injection, schedule: Q01DX001 (ip), vehicle: Klucel (hydroxypropylcellulose) (HPC) 94 % of control | dose: 56.25 mg/kg/injection, schedule: Q04DX003 (ip), vehicle: Klucel (hydroxypropylcellulose) (HPC) 97 % of control | dose: 100.0 mg/kg/injection, schedule: Q01DX001 (ip), vehicle: Klucel (hydroxypropylcellulose) (HPC) 95 % of control | dose: 112.5 mg/kg/injection, schedule: Q04DX003 (ip), vehicle: Klucel (hydroxypropylcellulose) (HPC) 95 % of control | dose: 150.0 mg/kg/injection, schedule: Q01DX001 (ip), vehicle: Klucel (hydroxypropylcellulose) (HPC) 89 % of control | dose: 225.0 mg/kg/injection, schedule: Q01DX001 (ip), vehicle: Klucel (hydroxypropylcellulose) (HPC) 97 % of control | dose: 225.0 mg/kg/injection, schedule: Q04DX003 (ip), vehicle: Klucel (hydroxypropylcellulose) (HPC) 94 % of control

CCCCNC(=S)NC1CC(O[C@H]2C[C@](O)(C(C)=O)Cc3c(O)c4c(c(O)c32)C(=O)c2c(OC)cccc2C4=O)OC(C)C1O (some centres not stated)
inactive: [4] 94 % of control

C/C=C1\CN2CCc3c([nH]c4ccccc34)C2CC1CC(=O)N(C)C (configuration not stated)
inactive: [12] 96 % of control | [13] 88 % of control
